# Reference: article PMC5065625, “Structure-mechanism-based engineering of chemical regulators targeting distinct pathological factors in Alzheimer's disease” (Nature Communications, 2016)
# Legend:
# [1] = UV–vis variable-pH titration (pKa); format: physicochemical; conditions: aqueous solution (10 mM NaOH, 100 mM NaCl) titrated with HCl, 100 μM
# Protocol: The pKa value for 2 was determined by UV–vis variable-pH titrations as previously reported. To establish the pKa value, a solution (10 mM NaOH, pH 12, 100 mM NaCl) of 2 (100 μM) was titrated with small amounts of HCl. At least 30 spectra were recorded in the range of pH 2–10. Similarly, a solution containing CuCl2 and 2 (50 μM) in a metal to ligand ratio of 1:2 was titrated with small additions of HCl and at least 30 spectra were recorded over the range pH 2–7. The acidity and stability constants were calculated by using the HypSpec program (Protonic Software, UK)[56]. Speciation diagrams were modelled in the HySS2009 program (Protonic Software)[57].
# metal-free Aβ40/Aβ42 = metal-free Aβ40/Aβ42 (Homo sapiens, UniProt P05067); experiment: Aβ aggregation inhibition/disaggregation experiments (gel/western blot, TEM), metal-free; format: biochemical; conditions: Aβ 25 μM, compound 50 μM, 37 °C, 24 h; gel/western blot and TEM
# Sequence of metal-free Aβ40/Aβ42 (P05067 672-711 limits assumed): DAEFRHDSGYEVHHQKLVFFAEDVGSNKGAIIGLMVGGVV
# Protocol: The ability of 1–4 to control the aggregation of both metal-free Aβ and metal-Aβ in inhibition (Fig. 2) and disaggregation experiments (Supplementary Fig. 1) was evaluated using the two major Aβ isoforms (Aβ40/Aβ42)[1][2][3][6][16] found in the AD-affected brain. Molecular weight (MW) distributions and morphologies of the resulting Aβ species were determined by gel electrophoresis followed by western blotting (gel/western blot) and transmission electron microscopy (TEM). Generally, under the experimental conditions employed herein, compound-free Aβ samples with and without metal ions assemble into a distribution of large aggregates that are too big to penetrate into the gel matrix, which yields very little smearing in the gel/western blots, but they can be visualized by TEM. […]
# Before experiments, Aβ40 or Aβ42 was dissolved in ammonium hydroxide (NH4OH; 1% v/v, aq). […] The concentration of the solution was determined by measuring the absorbance of the solution at 280 nm (ɛ=1,450 M^–1 cm^–1 for Aβ40; ɛ=1,490 M^–1 cm^–1 for Aβ42). […]
# The Aβ samples from in vivo or in vitro experiments were analysed by gel electrophoresis followed by western blotting using an anti-Aβ antibody (6E10)[24][25][27][28][29]. […]
# [2] = Cell viability (MTT assay), compounds with and without metal ions; format: cell-based, human; conditions: human, SK-N-BE(2)-M17 (M17) neuroblastoma cells; M17 cells, in the absence of Cu(II), 48 and 72 h
# Protocol: The M17 cell line was purchased from the American Type Culture Collection (ATCC, Manassas, VA, USA). The cell line was maintained in media containing 50% minimum essential medium and 50% F12 (GIBCO, Grand Island, NY, USA), supplemented with 10% fetal bovine serum (Sigma), 100 U ml^−1 penicillin, and […] streptomycin (GIBCO). The cells were grown and maintained at 37 °C in a humidified atmosphere with 5% CO2. […] Cell viability upon treatment of compounds was determined using the MTT assay (Sigma). M17 cells were seeded in a 96-well plate (15,000 cells in 100 μl per well). The cells were treated with Aβ (20 μM) with or without CuCl2 or ZnCl2 (20 μM), followed by the addition of compounds (20 μM, 1% v/v final DMSO concentration), and incubated for 24 h. After incubation, 25 μl MTT (5 mg ml^−1 in phosphate buffered saline (PBS, pH 7.4, GIBCO) was added to each well and the plate was incubated for 4 h at 37 °C. Formazan produced by the cells was solubilized using an acidic solution of N,N-dimethylformamide (DMF, 50%, v/v aq) and SDS (20%, w/v) overnight at room temperature in the dark. The absorbance was measured at 600 nm using a microplate reader. Cell viability was calculated relative to cells containing an equivalent amount of DMSO.
smiles,measurement,setting,value
"COc1cc(NCc2ccccn2)cc(OC)c1 [compound 2, 3,5-dimethoxy-N-(pyridin-2-ylmethyl)aniline]",pKa,[1],5
"CN(C)c1ccc(NCc2ccc[nH]2)cc1 [compound 4, N^1-((1H-pyrrol-2-yl)methyl)-N^4,N^4-dimethylbenzene-1,4-diamine]",Modulation of metal-free Aβ aggregation,metal-free Aβ40/Aβ42,pronounced influence on metal-free Aβ aggregation
same,viability at up to 20 μM,[2],~60%
